Reference: patent US5459257A, “Sulfated oligoglycoside acylate and antiviral agent containing the same as active ingredient” (priority 1993, dated 1995)
Where two headings read alike, the source gives them in different places.

Legend:
HIV [1] = assay: anti-HIV activity of serum after intravenous administration to mice; type: in vivo; conditions: for reciprocal number of concentration of dextran sulfate at 50% cell viability: mouse serum, 80 mg/kg
Experimental: The effects of Compound 6 and dextran sulfate in vivo experiment were studied by duration of the activity using mouse.
Compound 6 were dissolved with saline at the concentration of 32 mg/10 ml. Dextran sulfate (Control compound: M.W=8000: Sigma) were dissolved with it at the concentration of 80 mg/10 ml.
(§1) Mouse (Crj:CD-1(ICR)) (supplier: Charles River Japan, Inc.), six weeks old were used for this study.
Four groups (for 1, 4, 6 and 12 hours) of mice (one group: three mice) were used for the in vivo experiments of the Compound 6.
The twelve mice were given an intravenous injection of the compound (in the tail vein; Dose 32 mg/kg).
Three groups (for 20, 40 and 60 minutes) of mice (one group: two mice) were used for dextran sulfate such a method as described in Compound 6 (Dose 80 mg/kg). At decided times after injection, the blood was collected and serum was separated by centrifugation at low speed.
The serum samples were stored at -80° C. until assayed. Each serum sample was diluted with culture medium to evaluate the effective concentration (the maximum concentration was set up to 10%). The method of this anti-HIV activity evaluation was the same one as described in EXAMPLE 49.
(*)Various concentration of the serum solutions (diluted with the medium
and the maximum concentration is 10%) were used for evaluation of the
shown. That is why the higher the reciprocal number, the higher the […]

[2] = in vivo; cited from earlier work
rabbit blood [3] = tested on: rabbit blood
Experimental: (§3) Sodium heparin (Kodama) used as positive control was diluted with saline at the concentration of 120 U/ml.
(§4) Japan White rabbits (supplier: Kitayama Labes), 4 months old, were used for this study.
(§5) Cardiopuncture was performed in a rabbit, and at when blood was started to be flowed into the syringe, the timer was made to start. The whole blood collected was carefully flowed into double glass tubes incubated. After putting the samples calmly for 3 minutes, the first tube was tilted gently every 30 seconds and the current of blood was observed. When blood in the first tube was clotted, the same operation was performed in the second tube. When the blood was clotted in the second tube, the timer was stopped, and this end point was recorded as whole blood clotting time.

rabbit blood [4] = assay: effects on blood clotting, whole blood clotting time; conditions: for clotting time: rabbit whole blood
Experimental: as §3, §4, §5

MT-4 cells = assay: cytotoxicity in mock-infected MT-4 cells (MTT method); type: cell-based; conditions: mock-infected MT-4 cells, 5 days, 37° C.; 7200 min
Experimental: (§2) A test compound having various concentrations were placed in a 96-well microtiter plate along with HIV-infected MT-4 cells (2.5×10^4 /well, MOI (multiplicity of infection): 0.01) immediately after infection thereof. In order to ascertain the cytotoxicty of the test compound with respect to MT-4 cells, mock-infected (non-infected) cells were cultured in an identical manner along with the test compound of various concentrations. After incubating for 5 days at 37° C. in a CO2 atmosphere, the number of living cells were determined by using MTT method.
Selectivity Index (S.I.) is expressed by the ratio of CC50 to EC50 (CC50 /EC50).

HIV [5] = assay: anti-HIV activity, inhibition of HIV-induced cytopathicity in MT-4 cells (MTT method); type: cell-based
Experimental: as §2, with “method. The anti-HIV activity was evaluated with the method written by R. Pauwels, et al. (R. Pauwels, et al., J. Virol Methods, 20, 309 to 321 (1988)).” for “method.”
The anti-HIV activity is shown in terms of EC50 (50% effective concentration) that is the concentration of a compound which inhibits 50% of HIV-induced cytopathicity in MT-4 cells, and the cytotoxity is shown in terms of CC50 (cytotoxic concentration) that is the concentration of a compound which reduces 50% of viability of mock-infected MT-4 cells. Selectivity Index (S.I.) is expressed by the ratio of CC50 to EC50 (CC50 /EC50).

HIV [6] = assay: anti-HIV activity of serum after oral administration to mice; type: in vivo; conditions: for reciprocal number of concentration at 50% cell viability: mouse serum
Experimental: The effects of orally administration of Compound 1 in vivo experiment were studied by duration of the activity using mouse.
Compound 1 was dissolved with distilled water at the concentrations of 500 mg/10 ml and 1000 mg/10 ml.
as §1
Three groups (for 1, 2 and 3 hours) of mice (one group: three mice) were used for the in vivo experiments. Nine mice were given an orally administered of Compound 1 at a dose of 500 mg/kg or 1.0 g/kg.
At decided times after administration, the blood was collected and the serum was collected by centrifugation at low speed.
The serum samples were stored at -80° C. until assayed.
Each serum sample was diluted to evaluate the effective concentration with culture medium. The evaluation method was the same as described the section of Anti-HIV activity.

Substance	reciprocal number of concentration of dextran sulfate at 50% cell viability (HIV [1]; 20 min after i.v. injection)	reciprocal number of concentration of dextran sulfate at 50% cell viability (HIV [1]; 40 min after i.v. injection)	reciprocal number of concentration of dextran sulfate at 50% cell viability (HIV [1]; 60 min after i.v. injection)	detection/duration of activity in serum (HIV [1]; mouse, i.v., Compound 6 32 mg/kg up to 12 hours, dextran sulfate 80 mg/kg up to 60 min)	absorption after oral administration [2]	comparing strength of effects on blood clotting (rabbit blood [3])	comparing strength of effects on blood clotting (rabbit blood [4]; at the concentration of more than 0.1%)	clotting time (rabbit blood [4]; 0.01%) [min]	clotting time (rabbit blood [4]; 0.1%) [min]	clotting time (rabbit blood [4]; 1.0%) [min]	CC50 (MT-4 cells) [µg/mL]	EC50 (HIV [5]; HIV-infected MT-4 cells, MOI 0.01, 5 days, 37° C.) [µg/mL]	S.I. (CC50/EC50) (HIV [5]; MT-4 cells, ratio of CC50 to EC50, 7200 min)	reciprocal number of concentration at 50% cell viability (HIV [6]; 1 hour after oral administration, 500 mg/kg)	reciprocal number of concentration at 50% cell viability (HIV [6]; 1 hour after oral administration, 1.0 g/kg)	reciprocal number of concentration at 50% cell viability (HIV [6]; 2 hours after oral administration, 500 mg/kg)	reciprocal number of concentration at 50% cell viability (HIV [6]; 2 hours after oral administration, 1.0 g/kg)	reciprocal number of concentration at 50% cell viability (HIV [6]; 3 hours after oral administration, 500 mg/kg)	reciprocal number of concentration at 50% cell viability (HIV [6]; 3 hours after oral administration, 1.0 g/kg)	detection of activity in serum after oral administration (HIV [6]; mouse, oral, 500 mg/kg or 1.0 g/kg)
dextran sulfate	< 10	< 10	< 10	could not be detected	poorly absorbed	dextran sulfate>1>6														
Sulfated n-dodecyl O-benzoyl-β-D-laminaripentaoside [Compound 1]							dextran sulfate>1>6	8.0 ± 0.5	8.3 ± 0.7	27.3 ± 3.0	814	3.2	254	15.9	55.6	19.2	83.8	26.7	54.1	detected at a high concentration
